Assay [1] relates to smallflower umbrella sedge. Description: Test C flooded paddy test. In kind it is in vivo, Cyperus difformis. The note with it: for Plant response rating, Sedge, Umbrella / pest or weed control at 500 g/ha: 500 g ai/ha, visual rating after 12 to 14 days; for pest or weed control at 62 g/ha / pest or weed control at 125 g/ha / pest or weed control at 250 g/ha / pest or weed control at 500 g/ha: Cyperus difformis; for pest or weed control at 62 g/ha / pest or weed control at 125 g/ha / pest or weed control at 250 g/ha: read-out: Sedge, Umbrella plant response rating; for pest or weed control at 500 g/ha: read-out: Plant response rating, Sedge, Umbrella.

Assay [2] relates to ducksalad. Put plainly: Test C flooded paddy test. The class given is in vivo, Heteranthera limosa. The note with it: for Plant response rating, Ducksalad / pest or weed control at 500 g/ha: 500 g ai/ha, visual rating after 12 to 14 days; for pest or weed control at 62 g/ha / pest or weed control at 125 g/ha / pest or weed control at 250 g/ha / pest or weed control at 500 g/ha: Heteranthera limosa; for pest or weed control at 62 g/ha / pest or weed control at 125 g/ha / pest or weed control at 250 g/ha: read-out: Ducksalad plant response rating; for pest or weed control at 500 g/ha: read-out: Plant response rating, Ducksalad.

Assay [3] has as its system rice. Description: Test C flooded paddy test. In kind it is in vivo, Oryza sativa. The note with it: for Plant response rating, Rice / plant injury at 500 g/ha: 500 g ai/ha, visual rating after 12 to 14 days; for plant injury at 62 g/ha / plant injury at 125 g/ha / plant injury at 250 g/ha / plant injury at 500 g/ha: Oryza sativa; for plant injury at 62 g/ha / plant injury at 125 g/ha / plant injury at 250 g/ha: read-out: Rice plant response rating; for plant injury at 500 g/ha: read-out: Plant response rating, Rice. The method, boiled down: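 Injury scored visually against controls on a 0 (no effect) to 100 (complete control) scale, 12 to 14 days after treatment in greenhouse. Flooded paddy plants treated at 2-leaf stage; postemergence plants at 1- to 4-leaf stage, 2 to 18 cm tall.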

Assay [4] concerns morningglory. Put plainly: Test A pre-/postemergence herbicide test. The class given is in vivo, Ipomoea spp. The note with it: Ipomoea, 240 h; for pest or weed control at 500 g/ha: 500 g ai/ha; for pest or weed control at 2000 g/ha: 2000 g ai/ha. The method, boiled down:
(§1)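 Plants are held in greenhouse about ten days after treatment, then compared with untreated controls and scored 0 (no effect) to 100 (complete control). Preemergence dosing is a directed soil spray on sown sandy loam; postemergence dosing is spray to runoff at 2–10 cm height.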

In assay [5] the test system is barnyardgrass. Put plainly: Test A pre-/postemergence herbicide test. The class given is in vivo, Echinochloa crus-galli. The note with it: Echinochloa crus-galli, 240 h; for pest or weed control at 500 g/ha: 500 g ai/ha; for pest or weed control at 2000 g/ha: 2000 g ai/ha. In short, it runs like this: as §1
Assay [6] relates to velvetleaf. Description: Test A pre-/postemergence herbicide test. The class given is in vivo, Abutilon theophrasti. The note with it: Abutilon theophrasti, 240 h; for pest or weed control at 500 g/ha: 500 g ai/ha; for pest or weed control at 2000 g/ha: 2000 g ai/ha. The method, boiled down: as §1
Setting [7] is: 125 g ai/ha, scale 0 to 100 (0 no effect, 100 complete control).
[8] abbreviates: 250 g ai/ha, scale of 0 to 100, 0 is no effect, 100 is complete control.
[9] abbreviates: scale 0 to 100 (0 no effect, 100 complete control).
The mark [10] stands for this setting: 62 g ai/ha, scale 0 to 100 (0 no effect, 100 complete control).
[11] abbreviates: post-emergence, Postemergence, 0 to 100 scale, 0 no effect, 100 complete control, read-out: Morningglory plant response rating.
[12] abbreviates: post-emergence, Postemergence, 0 to 100 scale, 0 no effect, 100 complete control, read-out: Plant response rating, Morningglory.
[13] abbreviates: pre-emergence, Preemergence, visual rating, 0 to 100 scale (0 no effect, 100 complete control), read-out: Morningglory plant response rating.
Where [14] appears, read: post-emergence, Postemergence, 0 to 100 scale, 0 no effect, 100 complete control, read-out: Barnyardgrass plant response rating.
[15] abbreviates: post-emergence, Postemergence, 0 to 100 scale, 0 no effect, 100 complete control, read-out: Plant response rating, Barnyardgrass.
Setting [16] is: pre-emergence, Preemergence, visual rating, 0 to 100 scale (0 no effect, 100 complete control), read-out: Barnyardgrass plant response rating.
Setting [17] is: post-emergence, Postemergence, 0 to 100 scale, 0 no effect, 100 complete control, read-out: Velvetleaf plant response rating.
Setting [18] is: post-emergence, Postemergence, 0 to 100 scale, 0 no effect, 100 complete control, read-out: Plant response rating, Velvetleaf.
[19] abbreviates: pre-emergence, Preemergence, visual rating, 0 to 100 scale (0 no effect, 100 complete control), read-out: Velvetleaf plant response rating.
The mark [20] stands for this setting: pre-emergence, preemergence, visual injury, 0 to 100 scale (0 no effect, 100 complete control), read-out: Velvetleaf plant response rating.

The values that follow come from US20060069132A1, “Azolecarboxamide herbicides” (priority 2004, published 2006).

SMILES strings stand for the structures. Where two headings read alike, the source gives them in different places.

`C#CCOc1cccc(NC(=O)c2cc(C(C)(C)C)nn2CC)c1` [Compound 411]: the “Sedge, Umbrella plant response rating” value amounted to 60 in assay [1] (62 g ai/ha, scale 0 to 100); 75 in assay [1] (setting [7]); 80 in assay [1] (setting [8]). In addition, the “Plant response rating, Sedge, Umbrella” value in assay [1] (setting [9]) is given as 85. The “Ducksalad plant response rating” value was 25 in assay [2] (62 g ai/ha, scale 0 to 100); 50 in assay [2] (setting [7]); 70 in assay [2] (setting [8]). Besides, the “Plant response rating, Ducksalad” value in assay [2] (setting [9]) was found to be 80. In addition, the “Rice plant response rating” value is given as 0 in assay [3] (62 g ai/ha, scale 0 to 100); 25 in assay [3] (setting [7]); 35 in assay [3] (setting [8]). Besides, the “Plant response rating, Rice” value in assay [3] (setting [9]) is on record as 35.
Turning to `C=CCOc1cccc(NC(=O)c2cc(C(C)(C)C)nn2CC)c1` [Compound 412], the “Sedge, Umbrella plant response rating” value in assay [1] (62 g ai/ha, scale 0 to 100) came out at 70; in assay [1] (setting [7]) it was 75; in assay [1] (setting [8]) it was 80. In assay [1] (setting [9]), the “Plant response rating, Sedge, Umbrella” value was 95. The “Ducksalad plant response rating” value in assay [2] (62 g ai/ha, scale 0 to 100) came out at 0; in assay [2] (setting [7]), 30; in assay [2] (setting [8]), 60. In addition, the “Plant response rating, Ducksalad” value in assay [2] (setting [9]) is reported as 90. The “Rice plant response rating” value in assay [3] (62 g ai/ha, scale 0 to 100) came to 15; in assay [3] (setting [7]), 20; in assay [3] (setting [8]), 20. Besides, the “Plant response rating, Rice” value in assay [3] (setting [9]) turned out to be 50.
With `C#CCNC(=O)c1cccc(NC(=O)c2nn(C(C)(C)C)nc2CC)c1` [Compound 380], the “Sedge, Umbrella plant response rating” value stood at 80 in assay [1] (62 g ai/ha, scale 0 to 100); 85 in assay [1] (setting [7]); 85 in assay [1] (setting [8]). In addition, the “Plant response rating, Sedge, Umbrella” value in assay [1] (setting [9]) is 90. The “Ducksalad plant response rating” value in assay [2] (62 g ai/ha, scale 0 to 100) was found to be 25; in assay [2] (setting [7]) it was 50; in assay [2] (setting [8]), 75. In addition, in assay [2] (setting [9]), the “Plant response rating, Ducksalad” value was determined as 85. The “Rice plant response rating” value in assay [3] (62 g ai/ha, scale 0 to 100) is 45; in assay [3] (setting [7]), 65; in assay [3] (setting [8]) it was 70. Further, in assay [3] (setting [9]), the “Plant response rating, Rice” value is given as 75.
In the case of `CCNC(=O)c1cc(NC(=O)c2cn(C(C)(C)C)nc2CC)ccc1F` [Compound 241, 1-(1,1-dimethylethyl)-3-ethyl-N-[3-[(ethylamino)carbonyl]-4-fluorophenyl]-1H-pyrazole-4-carboxamide], the pest or weed control at 62 g/ha in assay [1] (setting [10]) and in assay [2] (setting [10]) was 0% throughout. Further, the pest or weed control at 125 g/ha in assay [1] (setting [7]) and in assay [2] (setting [7]) was 0% in each case. For the same compound, the pest or weed control at 250 g/ha is 55% in assay [1] (setting [8]) and 0% in assay [2] (setting [8]). The pest or weed control at 500 g/ha turned out to be 85% in assay [1] (setting [9]) and 15% in assay [2] (setting [9]). Moreover, the plant injury at 62 g/ha in assay [3] (setting [10]) stood at 0%. Further, in assay [3] (setting [7]), the plant injury at 125 g/ha turned out to be 0%. Further, in assay [3] (setting [8]), the plant injury at 250 g/ha was 30%. Besides, the plant injury at 500 g/ha in assay [3] (setting [9]) was 65%.
As for `CCOC(=O)c1ccc(F)c(NC(=O)C2CC(C(C)(C)C)=NN2CC)c1` (stereo not drawn) [Compound 267, ethyl 3-[[[3-(1,1-dimethylethyl)-1-ethyl-4,5-dihydro-1H-pyrazol-5-yl]carbonyl]amino]-4-fluorobenzoate], the pest or weed control at 500 g/ha in assay [4] (setting [11]) worked out at 30%; in assay [4] (pre-emergence, preemergence, visual injury, 0 to 100 scale (0 no effect, 100 complete control), read-out: Morningglory plant response rating), 20%; in assay [5] (setting [14]), 40%; in assay [5] (pre-emergence, preemergence, visual injury, 0 to 100 scale (0 no effect, 100 complete control), read-out: Barnyardgrass plant response rating) it was 70%; in assay [6] (setting [17]), 30%; in assay [6] (setting [20]), 25%. Moreover, the pest or weed control at 2000 g/ha came out at 45% in assay [4] (setting [12]); 45% in assay [4] (setting [13]); 65% in assay [5] (setting [15]); 80% in assay [5] (setting [16]); 35% in assay [6] (setting [18]); 60% in assay [6] (setting [19]).
Consider `CCn1nc(C(C)(C)C)cc1C(=O)Nc1ccc(F)c(C(=O)N(C)C)c1` [Compound 236, N-[3-[(dimethylamino)carbonyl]-4-fluorophenyl]-3-(1,1-dimethylethyl)-1-ethyl-1H-pyrazole-5-carboxamide], for which the pest or weed control at 62 g/ha in assay [1] (setting [10]) and in assay [2] (setting [10]) was 0% in each case. Moreover, the pest or weed control at 125 g/ha in assay [1] (setting [7]) is 20%; in assay [2] (setting [7]), 40%. For the same compound, the pest or weed control at 250 g/ha in assay [1] (setting [8]) was 45%; in assay [2] (setting [8]), 55%. Also, the pest or weed control at 500 g/ha in assay [1] (setting [9]) stood at 55%; in assay [2] (setting [9]), 80%. In addition, the plant injury at 62 g/ha in assay [3] (setting [10]) came to 0%. The plant injury at 125 g/ha in assay [3] (setting [7]) came out at 30%. For the same compound, the plant injury at 250 g/ha in assay [3] (setting [8]) came out at 60%. Further, the plant injury at 500 g/ha in assay [3] (setting [9]) turned out to be 70%.
As for `CCn1nc(C(C)(C)C)cc1C(=O)Nc1cccc(C(=O)OC)n1` [Compound 143, methyl 6-[[[3-(1,1-dimethylethyl)-1-ethyl-1H-pyrazol-5-yl]carbonyl]amino]-2-pyridinecarboxylate], the pest or weed control at 500 g/ha in assay [4] (setting [11]) turned out to be 10%; in assay [4] (setting [13]), 0%; in assay [5] (setting [14]), 10%; in assay [5] (setting [16]), 0%; in assay [6] (setting [17]) it was 0%; in assay [6] (setting [20]), 0%. For the same compound, the pest or weed control at 2000 g/ha in assay [4] (setting [12]) is 25%; in assay [4] (setting [13]) it was 0%; in assay [5] (setting [15]), 25%; in assay [5] (setting [16]) it was 0%; in assay [6] (setting [18]), 15%; in assay [6] (setting [19]), 0%.
As to `CCn1nc(C(C)(C)C)cc1C(=O)Nc1cc(C(=O)OC)ccn1` [Compound 151, methyl 2-[[[3-(1,1-dimethylethyl)-1-ethyl-1H-pyrazol-5-yl]carbonyl]amino]-4-pyridinecarboxylate], the pest or weed control at 500 g/ha in assay [4] (setting [11]) is 10%; in assay [4] (setting [13]), 0%; in assay [5] (setting [14]), 10%; in assay [5] (setting [16]), 0%; in assay [6] (setting [17]), 35%; in assay [6] (setting [20]), 0%. Also, the pest or weed control at 2000 g/ha came out at 20% in assay [4] (setting [12]); 0% in assay [4] (setting [13]); 10% in assay [5] (setting [15]); 0% in assay [5] (setting [16]); 60% in assay [6] (setting [18]); 10% in assay [6] (setting [19]).
